# Source: PMC12669040, “Tumour-specific STING agonist synthesis via a two-component prodrug system” (Nature Chemistry, 2025)
# pKd: −log10 of the molar value. “And” between values parts separate entries of the source, which are not always exact repeats. Equal entries are not always repeated. Where two headings read alike, the source gives them in different places.
# Experiments:
# serum cytokines = test: Multiplexed cytokine profiling of sera, MC38 model; format: in vivo, C57BL/6 mice; settings: sera obtained on Day 9, PBS = 1
# Description: This study used Luminex xMAP technology for multiplexed quantification of 44 mouse cytokines, chemokines and growth factors. The multiplexing analysis was performed using the Luminex 200 system (Luminex) by Eve Technologies Corp. […] markers were simultaneously measured in the samples using Eve Technologies’ Mouse Cytokine 44-Plex Discovery Assay, which consists of two separate kits, one 32-plex and one 12-plex (MilliporeSigma), following the manufacturer’s protocol. […] The sensitivities of individual analytes are available in the MilliporeSigma MILLIPLEX MAP protocol. […] MC-38 cells were inoculated into the right flank of C57BL/6 mice and treated once tumors reached about 90 mm^3. […] Source data
# MC38 tumours = settings: for Tumor Size: individual mice, * = excluded once a death was recorded in the group
# [1] = set-up: method as in PMID 32820094; settings: cited from earlier work
# [2] = biological target: T1, wild-type human STING LBD (hSTINGwt 138-379) (Homo sapiens, UniProt Q86WV6, H232R); test: Isothermal titration calorimetry (ITC), reverse titration; format: binding
# T1 construct: SUMO (N, cleaved yes); made in house; host or cells: Escherichia coli BL21 (DE3)
# Description: Escherichia coli BL21 (DE3) (Thermo Scientific EC0114) was transformed with a pET28a plasmid (Genscript) harbouring the codon-optimized sequence of SUMO-hSTINGwt (aa138-379). Transformed BL21 cells were inoculated into LB medium (50 µg ml^−1 kanamycin) and incubated at 180 rpm, 37 °C overnight. The overnight culture was then diluted (1:100 dilution) in 2× YT medium (50 µg ml^−1 kanamycin) and incubated at 180 rpm, 37 °C until optical density at 600 nm (OD600) reached 0.6 (approximately 3 h). The bacterial culture was then cooled to 16 °C, induced with 0.5 mM isopropyl 1-thio-D-galactopyranoside and incubated overnight at 180 rpm, 16 °C. The bacterial cells were pelleted at 4,000g for 30 min, resuspended in 20 ml of lysis buffer (25 mM HEPES pH 7.5, 150 mM NaCl, 20 mM imidazole and 2 mM TCEP supplied with 2 tablets of cOmplete mini EDTA-free protease inhibitors) and disrupted by sonication on ice. The total lysate was clarified by centrifugation at 22,000g for 30 min. The supernatant was collected and filtered through a 0.45-µm filter (Millipore SLHAR33SS). The clarified lysate was then incubated on a roller with 10 ml bed volume of Ni-NTA resin (Thermo Scientific 88223) at 4 °C for 1 h. The Ni-NTA resin was then packed in a column, flushed with 20 ml of wash buffer (25 mM HEPES pH 7.5, 150 mM NaCl and 20 mM imidazole) and eluted with 40 ml of elution buffer (25 mM HEPES pH 8.0, 150 mM NaCl and 250 mM imidazole). The eluted protein was concentrated to approximately 5 ml (Millipore Amicon 10 kDa molecular weight cut-off (MWCO)) and buffer-exchanged into storage buffer (25 mM HEPES pH 7.5 and 150 mM NaCl). TCEP was then added to a final concentration of 2 mM, and 250 units of SUMO protease (Merck SAE0067) were added. The cleavage reaction mixture was left to stand at 4 °C overnight until LC–MS analysis indicated the completion of the cleavage reaction. The cleavage mixture was incubated with 10 ml bed volume of Ni-NTA resin on a roller at 4 °C for 1 h and packed in a disposable column. The flowthrough was collected, and the resin was further flushed with 20 ml of wash buffer. The eluted fractions were combined, concentrated and further purified by size-exclusion chromatography (Cytiva, Superdex 200 Increase 10/300 GL). The purified protein in storage buffer was concentrated to 330 µM (dimer concentration) as determined by bicinchoninic acid (BCA) assay, aliquoted, flash-frozen in liquid nitrogen and stored at −80 °C for future use.
# The binding constants of purified dimers were measured by ITC (Malvern Panalytical AutoITC200) in a reverse-titration format. Stock DMSO solutions of each dimer were dissolved in titration buffer (25 mM HEPES pH 7.5 and 150 mM NaCl) to a final concentration of 25 µM and added to the titration cell. The syringe was filled with 250 µM of purified STING in a matching buffer. Titration was performed at 25 °C with the following parameters: 750 rpm stirring, 0.2 µl initial injection followed by 2-µl injections of the […] every 120 s. Titration of STING protein into blank buffer was separately performed and subtracted from the raw data before the analysis. The background-subtracted titration curves were fitted with the built-in Origin software using the standard one-site model.
# Extended Data Fig. 2 Isothermal titration calorimetry (ITC) data for binding constant measurements. Purified hSTINGwt138-379 (250 μM of homodimer) was titrated into each dimer (25 μM) dissolved in a matching buffer (25 mM HEPES pH 7.5, 150 mM NaCl) at 25 °C and 750 rpm stirring. Binding constants were reported as the average from duplicate measurements.
# T1 sequence (Q86WV6 138-379 H232R): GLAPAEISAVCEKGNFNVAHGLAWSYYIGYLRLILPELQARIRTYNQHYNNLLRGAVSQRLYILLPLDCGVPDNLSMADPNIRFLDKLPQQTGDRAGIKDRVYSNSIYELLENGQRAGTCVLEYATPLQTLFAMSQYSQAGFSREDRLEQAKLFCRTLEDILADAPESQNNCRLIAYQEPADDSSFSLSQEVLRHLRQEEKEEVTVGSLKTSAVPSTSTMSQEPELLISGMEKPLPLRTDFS
compound,measurement,setting,value
COc1cc2cc(C(=O)CCC(=O)O)sc2cc1OC [MSA2],CCL3,serum cytokines,1.442
same,CCL4,serum cytokines,0.7068
same,CCL12,serum cytokines,5.215
same,CXCL2,serum cytokines,1.851
same,EPO,serum cytokines,1.36
same,G-CSF,serum cytokines,2.042
same,IFNγ,serum cytokines,0.4672
same,IL-1β,serum cytokines,1.9772
same,IL-3,serum cytokines,0.512
same,IL-6,serum cytokines,4.186
same,IL-12p40,serum cytokines,0.2035
same,IL-12p70,serum cytokines,1.442
same,IL-15,serum cytokines,0.4244
same,IL-16,serum cytokines,1.895
same,IL-17,serum cytokines,1.777
same,M-CSF,serum cytokines,0.6463
same,TARC,serum cytokines,1.519
same,Tumor Size,MC38 tumours; day 39,279.4986* mm^3
same,Tumor Size,MC38 tumours; day 53,0* mm^3
same,Survival: Days,"MC38 tumours; mouse, in vivo",60 days and 49 days and 35 days
same,tumour and plasma concentration after intratumoural injection,[1],"its concentration in the tumour decreased rapidly past the 2-h timepoint, and substantial leakage into the plasma occurred"
COc1cc2sc(C(=O)CCC(=O)O)cc2cc1SCCSc1cc2cc(C(=O)CCC(=O)O)sc2cc1OC [SC2S],pKd,"[2]; 25 °C, average of duplicate measurements, read-out: Kd hSTINGwt (binding constant, ITC)",6.75
same,pKd,"[2]; ITC run _01, read-out: Kd",6.72
same,pKd,"[2]; ITC run _02, read-out: Kd",6.80
